# Data: patent US20120255051A1, “HERBICIDE TOLERANT PLANTS” (priority 2009, published 2012)
# Several values for one entry are separate records, joined by “and”; a condition that tells them apart may be missing. Equal values may be shown once.
# Columns and labels:
# Format in all cases: in vivo, Brassica napus
# [1] = system: Brassica plants comprising mutant AHAS alleles; experiment: Greenhouse post-emergence spray test (5 g a.i./ha): survival and plant type rating; set-up: key to number of surviving plants in plant type 4 / number of surviving plants in plant type 5 / number of surviving plants in plant type 2: 5: normal (corresponding to wildtype unsprayed phenotype); 4: normal height, some side branching, normal leaves; 3: intermediate height, intermediate side branching, normal leaves; 2: short, severe side branching (“bushy”), some leave malformations; 1: short, severe side branching (“bushy”), severe leave malformations; conditions: 5 g a.i./ha post-emergence
# Experimental: The correlation between the presence of missense and/or full knockout AHAS alleles in a Brassica plant grown in the greenhouse and tolerance to thiencarbazone-methyl was determined as follows. Of the Brassica plants identified in Example 1 and 2, crosses were made to obtain plants comprising both mutant AHAS1 and AHAS3 alleles (F1), which were subsequently backcrossed and selfed (BC1S1). Single gene AHAS missense mutants were backcrossed twice (BC2). These BC1S1 (representing all possible genotype combinations), as well as BC2 single AHAS gene mutant plants (50%+/+, 50%+/−), were sown in a greenhouse. Treatment post-emergence at the 1-2 leaf stage was carried out with a dose of 5 g a.i./ha of thiencarbazone-methyl and surviving plants were transplanted to 9 cm pots 10 days after spraying. The plants were evaluated for phenotype (height, side branching and leave morphology) 20 days after transplantation on scale of 5 to 1, where; type 5=normal (corresponding to wildtype unsprayed phenotype); type 4=normal height, some side branching, normal leaves; type 3=intermediate height, intermediate side branching, normal leaves; type 2=short, severe side branching (“bushy”), some leave malformations; type 1=short, severe side branching (“bushy”), severe leave malformations (Table 4).
# [2] = system: Brassica plants comprising mutant AHAS alleles; experiment: Field trial, post-emergence treatment (0, 10, 20 g a.i./ha), location A: PPTOX and VIG1 scores; conditions: for vigor1 (VIG1) score, Av: 7 days after spray
# Experimental: The correlation between the presence of full knockout and missense AHAS genes in Brassica plants on plant growth and herbicide tolerance of the Brassica plants in the field on location A was also tested upon post-emergence herbicide treatment. The field setup was the same as for the pre-planting field trial. Post-emergence treatment was carried out on the 2-4 leaf stage with a rate of 0 (treatment A), 10 (treatment B), 20 (treatment C) g a.i./ha of thiencarbazone methyl. The phytotoxicity (PPTOX) and vigor1 (VIG1; vigor scores 7 days after herbicide spray) were determined as described above. The average values (Av) and standard deviations (SD) of the scores for the different parameters are represented in Table 9.
# [3] = system: Brassica plants comprising mutant AHAS alleles; experiment: Greenhouse post-emergence spraying (10 g a.i./ha): vigor scores; conditions: for vigor score Av, post-emergence (1, 2 and 3 weeks after treatment): 10 g a.i./ha
# Experimental: In another experiment, the effect of combining AHAS full knockouts with AHAS missense herbicide tolerant alleles on tolerance to thiencarbazone-methyl pre-planting application and thiencarbazone-methyl post-emergence spraying was tested in the greenhouse. To this end, the Brassica plants identified in Example 1 and 2 were backcrossed two times with an elite parent line, and subsequently selfed twice to obtain homozygous plants (BC2S2). Treatment pre-planting was carried out on the soil just after sowing with a dose of 20 g a.i./ha of thiencarbazone methyl. For assessment of vigor scores, plants were evaluated on a scale of 1 to 9, where 1=dead, 3=poor, 6=some aberrant phenotype and 9=vigorous. The vigor scores are an average of the scores taken at 2, 3 and 4 weeks after treatment. Treatment post-emergence at the first leaf stage was carried out with a dose of 10 g a.i./ha of thiencarbazone-methyl. The vigor scores are an average of the scores taken 1, 2 and 3 weeks after the treatment. The average values (Av) and standard deviations (SD) of the vigor scores are represented in Table 6.
# [4] = BC1S1 HETO108/HETO102, 204 sown, 201 germinated
# [5] = BC1S1 HETO108/HETO103, 204 sown, 199 germinated
# [6] = BC1S1 HETO108/HETO104, 204 sown, 200 germinated
# [7] = BC1S1 HETO112/HETO111, 204 sown, 204 germinated
# [8] = BC2 HETO108, 51 sown, 50 germinated
# [9] = BC2 HETO111, 51 sown, 49 germinated
# [10] = Elite parent line plants, 10 g a.i./ha (treatment B) post-emergence
# [11] = Elite parent line plants, 20 g a.i./ha (treatment C) post-emergence
# [12] = plants AHAS1 HETO108 / AHAS3 HETO104, 10 g a.i./ha (treatment B) post-emergence
# [13] = plants AHAS1 HETO108 / AHAS3 HETO104, 20 g a.i./ha (treatment C) post-emergence
# [14] = plants AHAS1 HETO108 / AHAS3 HETO111, 10 g a.i./ha (treatment B) post-emergence
# [15] = plants AHAS1 HETO108 / AHAS3 HETO111, 20 g a.i./ha (treatment C) post-emergence
# [16] = plants AHAS1 HETO108 / AHAS3 WT, 10 g a.i./ha (treatment B) post-emergence
# [17] = plants AHAS1 HETO108 / AHAS3 WT, 20 g a.i./ha (treatment C) post-emergence
# [18] = plants AHAS1 HETO112 / AHAS3 HETO111, 10 g a.i./ha (treatment B) post-emergence
# [19] = plants AHAS1 HETO112 / AHAS3 HETO111, 20 g a.i./ha (treatment C) post-emergence
# [20] = plants AHAS1 HETO112 / AHAS3 WT, 10 g a.i./ha (treatment B) post-emergence
# [21] = plants AHAS1 HETO112 / AHAS3 WT, 20 g a.i./ha (treatment C) post-emergence
# [22] = plants AHAS1 WT / AHAS3 HETO104, 10 g a.i./ha (treatment B) post-emergence
# [23] = plants AHAS1 WT / AHAS3 HETO104, 20 g a.i./ha (treatment C) post-emergence
# [24] = plants AHAS1 WT / AHAS3 HETO111, 10 g a.i./ha (treatment B) post-emergence
# [25] = plants AHAS1 WT / AHAS3 HETO111, 20 g a.i./ha (treatment C) post-emergence
# [26] = plants AHAS1 WT / AHAS3 WT, 10 g a.i./ha (treatment B) post-emergence
# [27] = plants AHAS1 WT / AHAS3 WT, 20 g a.i./ha (treatment C) post-emergence
smiles,measurement,setting,value
"COC(=O)c1csc(C)c1S(=O)(=O)NC(=O)n1nc(OC)n(C)c1=O [thiencarbazone-methyl, methyl 4-[(4,5-dihydro-3-methoxy-4-methyl-5-oxo-1H-1,2,4-triazol-1-yl)carbonylsulfamoyl]-5-methylthiophene-3-carboxylate]",number of surviving plants in plant type 1,[1]; [4],108
same,number of surviving plants in plant type 2,[1]; [4],34
same,number of surviving plants in plant type 3,[1]; [4],21
same,number of surviving plants in plant type 4,[1]; [4],1
same,number of surviving plants in plant type 5,[1]; [4],0
same,number of surviving plants transplanted after spraying (trans),[1]; [4],169
same,number of surviving plants in plant type 1,[1]; [5],88
same,number of surviving plants in plant type 2,[1]; [5],18
same,number of surviving plants in plant type 3,[1]; [5],41
same,number of surviving plants in plant type 4,[1]; [5],4
same,number of surviving plants in plant type 5,[1]; [5],0
same,number of surviving plants transplanted after spraying (trans),[1]; [5],151
same,number of surviving plants in plant type 1,[1]; [6],66
same,number of surviving plants in plant type 2,[1]; [6],18
same,number of surviving plants in plant type 3,[1]; [6],28
same,number of surviving plants in plant type 4,[1]; [6],2
same,number of surviving plants transplanted after spraying (trans),[1]; [6],115
same,number of surviving plants in plant type 5,"[1]; BC1S1 HETO108/HETO104, 204 sown, 200 germinated (probably missed during spraying)",1
same,number of surviving plants in plant type 1,[1]; [7],94
same,number of surviving plants in plant type 2,[1]; [7],23
same,number of surviving plants in plant type 3,[1]; [7],35
same,number of surviving plants in plant type 4,[1]; [7],0
same,number of surviving plants in plant type 5,[1]; [7],0
same,number of surviving plants transplanted after spraying (trans),[1]; [7],152
same,number of surviving plants in plant type 1,[1]; [8],20
same,number of surviving plants in plant type 2,[1]; [8],2
same,number of surviving plants in plant type 3,[1]; [8],0
same,number of surviving plants in plant type 4,[1]; [8],0
same,number of surviving plants in plant type 5,[1]; [8],0
same,number of surviving plants transplanted after spraying (trans),[1]; [8],22
same,number of surviving plants in plant type 1,[1]; [9],22
same,number of surviving plants in plant type 2,[1]; [9],0
same,number of surviving plants in plant type 3,[1]; [9],0
same,number of surviving plants in plant type 4,[1]; [9],0
same,number of surviving plants in plant type 5,[1]; [9],0
same,number of surviving plants transplanted after spraying (trans),[1]; [9],25
same,number of surviving plants in plant type 1,"[1]; wt, 51 sown, 51 germinated",0
same,number of surviving plants in plant type 2,"[1]; wt, 51 sown, 51 germinated",0
same,number of surviving plants in plant type 3,"[1]; wt, 51 sown, 51 germinated",0
same,number of surviving plants in plant type 4,"[1]; wt, 51 sown, 51 germinated",0
same,number of surviving plants in plant type 5,"[1]; wt, 51 sown, 51 germinated",0
same,number of surviving plants transplanted after spraying (trans),"[1]; wt, 51 sown, 51 germinated",0
same,"phytotoxicity (PPTOX) score, Av",[2]; [10],1.00
same,"vigor1 (VIG1) score, Av",[2]; [10],2.33
same,"phytotoxicity (PPTOX) score, Av",[2]; [11],1.00
same,"vigor1 (VIG1) score, Av",[2]; [11],2.33
same,"phytotoxicity (PPTOX) score, Av",[2]; [12],5.00
same,"vigor1 (VIG1) score, Av",[2]; [12],5.00
same,"phytotoxicity (PPTOX) score, Av",[2]; [13],4.00
same,"vigor1 (VIG1) score, Av",[2]; [13],4.00
same,"phytotoxicity (PPTOX) score, Av",[2]; [14],6.67
same,"vigor1 (VIG1) score, Av",[2]; [14],6.67
same,"phytotoxicity (PPTOX) score, Av",[2]; [15],6.00
same,"vigor1 (VIG1) score, Av",[2]; [15],6.00
same,"phytotoxicity (PPTOX) score, Av",[2]; [16],6.00 and 5.67
same,"vigor1 (VIG1) score, Av",[2]; [16],6.00 and 5.67
same,"phytotoxicity (PPTOX) score, Av",[2]; [17],4.33
same,"vigor1 (VIG1) score, Av",[2]; [17],4.67 and 4.33
same,"phytotoxicity (PPTOX) score, Av",[2]; [18],5.00
same,"vigor1 (VIG1) score, Av",[2]; [18],5.00
same,"phytotoxicity (PPTOX) score, Av",[2]; [19],4.67
same,"vigor1 (VIG1) score, Av",[2]; [19],4.67
same,"phytotoxicity (PPTOX) score, Av",[2]; [20],1.00
same,"vigor1 (VIG1) score, Av",[2]; [20],2.00
same,"phytotoxicity (PPTOX) score, Av",[2]; [21],1.00
same,"vigor1 (VIG1) score, Av",[2]; [21],1.67
same,"phytotoxicity (PPTOX) score, Av",[2]; [22],1.00
same,"vigor1 (VIG1) score, Av",[2]; [22],1.67
same,"phytotoxicity (PPTOX) score, Av",[2]; [23],1.00
same,"vigor1 (VIG1) score, Av",[2]; [23],1.67
same,"phytotoxicity (PPTOX) score, Av",[2]; [24],5.33 and 5.67
same,"vigor1 (VIG1) score, Av",[2]; [24],5.33
same,"phytotoxicity (PPTOX) score, Av",[2]; [25],4.67
same,"vigor1 (VIG1) score, Av",[2]; [25],4.67
same,"phytotoxicity (PPTOX) score, Av",[2]; [26],1.00
same,"vigor1 (VIG1) score, Av",[2]; [26],1.67
same,"phytotoxicity (PPTOX) score, Av",[2]; [27],1.00
same,"vigor1 (VIG1) score, Av",[2]; [27],2.00
same,"vigor score Av, post-emergence (1, 2 and 3 weeks after treatment)","[3]; AHAS1 +/+, AHAS3 +/+ (HETO108+HETO104 series)",1.7
same,"vigor score Av, post-emergence (1, 2 and 3 weeks after treatment)","[3]; AHAS1 +/+, AHAS3 +/+ (HETO108+HETO111 series)",1.7
same,"vigor score Av, post-emergence (1, 2 and 3 weeks after treatment)","[3]; AHAS1 +/+, AHAS3 +/+ (HETO112+HETO111 series)",1.7
same,"vigor score Av, post-emergence (1, 2 and 3 weeks after treatment)","[3]; AHAS1 +/+, AHAS3 HETO104/HETO104",1.8
same,"vigor score Av, post-emergence (1, 2 and 3 weeks after treatment)","[3]; AHAS1 +/+, AHAS3 HETO111/HETO111 (HETO108+HETO111 series)",3.3
same,"vigor score Av, post-emergence (1, 2 and 3 weeks after treatment)","[3]; AHAS1 +/+, AHAS3 HETO111/HETO111 (HETO112+HETO111 series)",3.1
same,"vigor score Av, post-emergence (1, 2 and 3 weeks after treatment)","[3]; AHAS1 HETO108/HETO108, AHAS3 +/+ (HETO108+HETO104 series)",3.4
same,"vigor score Av, post-emergence (1, 2 and 3 weeks after treatment)","[3]; AHAS1 HETO108/HETO108, AHAS3 +/+ (HETO108+HETO111 series)",3.3
same,"vigor score Av, post-emergence (1, 2 and 3 weeks after treatment)","[3]; AHAS1 HETO108/HETO108, AHAS3 HETO104/HETO104",3.8
same,"vigor score Av, post-emergence (1, 2 and 3 weeks after treatment)","[3]; AHAS1 HETO108/HETO108, AHAS3 HETO111/HETO111",4.7
same,"vigor score Av, post-emergence (1, 2 and 3 weeks after treatment)","[3]; AHAS1 HETO112/HETO112, AHAS3 +/+",1.7
same,"vigor score Av, post-emergence (1, 2 and 3 weeks after treatment)","[3]; AHAS1 HETO112/HETO112, AHAS3 HETO111/HETO111",3.6
same,"vigor score Av, post-emergence (1, 2 and 3 weeks after treatment)",[3]; Elite parent line treated,1.8
same,"thiencarbazone-methyl tolerance of plants homozygous for a missense allele and a full knock-out allele, versus missense allele with other AHAS gene homozygous wild-type","[3]; post-emergence spraying, greenhouse",higher
